Experimental data reported in patent publication US10501461B2, “Tyrosine amide derivatives as Rho-kinase inhibitors” (CHIESI FARMACEUTICI S.P.A., priority 2017, dated 2019).

Tests used:
[1] = target: Rho kinase 1 (ROCK-I) (Homo sapiens, UniProt Q13464); assay: In vitro Rho kinase inhibitory activity assay (ADP-Glo), Rho kinase 1; format: biochemical; settings: 10 μM ATP, 25° C., expressed as range of activity
How it was run: (§1)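 ADP-Glo luminescence read-out. Enzyme (ROCK1 or ROCK2) + compound 30 min, then 10 μM ATP final, 1 h, 25 °C; 2.5 μM MBP peptide substrate, Tris pH7.5/MgCl2/BSA/DTT buffer, 1% DMSO. IC50 from variable-slope fit (0–100% fixed); Ki via Cheng-Prusoff.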

[2] = target: Rho kinase 2 (ROCK-II) (Homo sapiens, UniProt O75116); assay: In vitro Rho kinase inhibitory activity assay (ADP-Glo), Rho kinase 2; format: biochemical; settings: 10 μM ATP, 25° C., expressed as range of activity
Sequence of Rho kinase 2 (ROCK-II) (O75116 whole entry): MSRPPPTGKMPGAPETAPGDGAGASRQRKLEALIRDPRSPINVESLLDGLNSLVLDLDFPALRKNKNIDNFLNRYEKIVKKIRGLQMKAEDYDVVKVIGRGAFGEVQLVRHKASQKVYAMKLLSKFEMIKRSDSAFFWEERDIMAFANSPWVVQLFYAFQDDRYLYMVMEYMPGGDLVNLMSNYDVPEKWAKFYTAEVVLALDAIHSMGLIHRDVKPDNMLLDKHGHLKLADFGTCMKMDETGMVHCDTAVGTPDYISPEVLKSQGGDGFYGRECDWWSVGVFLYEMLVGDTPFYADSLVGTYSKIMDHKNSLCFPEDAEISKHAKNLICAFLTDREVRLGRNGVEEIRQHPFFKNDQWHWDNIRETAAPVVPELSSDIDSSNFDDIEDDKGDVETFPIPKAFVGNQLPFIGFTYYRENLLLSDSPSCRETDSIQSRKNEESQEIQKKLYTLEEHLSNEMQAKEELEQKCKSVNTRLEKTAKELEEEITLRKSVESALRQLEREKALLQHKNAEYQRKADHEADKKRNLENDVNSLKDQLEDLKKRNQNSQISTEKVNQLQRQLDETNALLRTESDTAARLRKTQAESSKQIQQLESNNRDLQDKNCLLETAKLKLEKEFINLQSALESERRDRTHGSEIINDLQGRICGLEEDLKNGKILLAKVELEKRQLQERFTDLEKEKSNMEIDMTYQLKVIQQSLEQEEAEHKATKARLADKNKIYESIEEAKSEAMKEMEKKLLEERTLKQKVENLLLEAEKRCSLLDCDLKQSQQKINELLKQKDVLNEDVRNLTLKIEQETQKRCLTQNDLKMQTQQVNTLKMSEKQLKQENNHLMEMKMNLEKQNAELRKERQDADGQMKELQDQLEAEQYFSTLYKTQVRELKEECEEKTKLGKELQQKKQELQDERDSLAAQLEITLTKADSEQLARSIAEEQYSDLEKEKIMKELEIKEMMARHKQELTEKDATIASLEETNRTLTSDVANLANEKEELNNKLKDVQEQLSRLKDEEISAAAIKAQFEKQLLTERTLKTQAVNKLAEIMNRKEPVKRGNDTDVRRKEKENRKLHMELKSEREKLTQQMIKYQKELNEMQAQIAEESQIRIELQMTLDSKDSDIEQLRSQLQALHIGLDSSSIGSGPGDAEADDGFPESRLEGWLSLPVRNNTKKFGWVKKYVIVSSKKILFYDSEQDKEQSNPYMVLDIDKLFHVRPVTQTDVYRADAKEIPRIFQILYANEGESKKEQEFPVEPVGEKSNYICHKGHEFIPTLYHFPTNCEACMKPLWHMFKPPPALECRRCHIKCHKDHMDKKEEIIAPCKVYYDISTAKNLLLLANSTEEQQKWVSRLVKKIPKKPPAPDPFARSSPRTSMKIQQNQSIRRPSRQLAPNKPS
How it was run: as §1

Sequence of Rho kinase 1 (ROCK-I) (Q13464 whole entry): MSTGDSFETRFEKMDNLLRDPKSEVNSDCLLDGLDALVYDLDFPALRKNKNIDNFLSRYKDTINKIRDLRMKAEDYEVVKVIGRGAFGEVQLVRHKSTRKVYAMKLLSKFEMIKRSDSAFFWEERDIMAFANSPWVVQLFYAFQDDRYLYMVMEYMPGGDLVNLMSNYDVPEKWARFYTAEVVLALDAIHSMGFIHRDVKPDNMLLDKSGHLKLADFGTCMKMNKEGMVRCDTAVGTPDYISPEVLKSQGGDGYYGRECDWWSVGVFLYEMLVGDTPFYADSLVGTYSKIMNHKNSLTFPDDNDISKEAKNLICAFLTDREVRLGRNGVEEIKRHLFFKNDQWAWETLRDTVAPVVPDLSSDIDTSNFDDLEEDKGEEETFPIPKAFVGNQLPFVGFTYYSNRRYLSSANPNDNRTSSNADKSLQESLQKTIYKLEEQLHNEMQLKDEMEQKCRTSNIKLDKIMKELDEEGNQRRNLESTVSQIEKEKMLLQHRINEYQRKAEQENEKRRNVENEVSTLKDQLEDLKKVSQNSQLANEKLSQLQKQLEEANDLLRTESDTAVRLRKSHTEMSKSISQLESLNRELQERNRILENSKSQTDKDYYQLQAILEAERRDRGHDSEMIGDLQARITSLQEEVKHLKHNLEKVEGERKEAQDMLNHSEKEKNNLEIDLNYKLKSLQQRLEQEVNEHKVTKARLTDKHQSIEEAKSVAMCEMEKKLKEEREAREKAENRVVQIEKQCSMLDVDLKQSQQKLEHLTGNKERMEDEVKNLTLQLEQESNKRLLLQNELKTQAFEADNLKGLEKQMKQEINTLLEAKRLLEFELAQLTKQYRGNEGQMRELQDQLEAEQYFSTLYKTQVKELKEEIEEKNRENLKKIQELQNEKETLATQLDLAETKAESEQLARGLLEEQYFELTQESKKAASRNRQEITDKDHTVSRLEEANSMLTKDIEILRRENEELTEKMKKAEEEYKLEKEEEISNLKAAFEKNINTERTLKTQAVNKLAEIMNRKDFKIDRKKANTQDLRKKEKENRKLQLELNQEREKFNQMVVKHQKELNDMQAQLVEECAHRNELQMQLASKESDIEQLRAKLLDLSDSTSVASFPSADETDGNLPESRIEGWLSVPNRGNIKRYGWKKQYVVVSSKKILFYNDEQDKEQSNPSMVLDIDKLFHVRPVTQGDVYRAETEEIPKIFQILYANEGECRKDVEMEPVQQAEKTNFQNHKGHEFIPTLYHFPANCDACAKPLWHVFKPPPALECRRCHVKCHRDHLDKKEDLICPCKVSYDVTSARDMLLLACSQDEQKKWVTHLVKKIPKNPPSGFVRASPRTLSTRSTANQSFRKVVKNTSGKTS

Structure (SMILES)	Ki [1]	Ki [2]
Cc1c[nH]c2nccc(Oc3ccc(C[C@H](N)C(=O)N4C[C@H]5CNC[C@H]5C4)cc3F)c12 [Example 31, (S)-2-amino-3-(3-fluoro-4-((3-methyl-1H-pyrrolo[2,3-b]pyridin-4-yl)oxy)phenyl)-1-((3aR,6aS)-hexahydropyrrolo[3,4-c]pyrrol-2(1H)-yl)propan-1-one]	< 3 nM	< 3 nM
Cc1c[nH]c2nccc(Oc3ccc(C[C@@H](N)C(=O)NC4CCCCC4)cc3)c12 [Example 142, (R)-2-amino-N-cyclohexyl-3-(4-((3-methyl-1H-pyrrolo[2,3-b]pyridin-4-yl)oxy)phenyl)propanamide]	3 to 30 nM	3 to 30 nM
Cc1c[nH]c2nccc(Oc3ccc(CC(N)C(=O)N4CCc5ccncc5C4)cc3F)c12 (centres unmarked) [Example 67, 2-amino-1-(3,4-dihydro-2,7-naphthyridin-2(1H)-yl)-3-(3-fluoro-4-((3-methyl-1H-pyrrolo[2,3-b]pyridin-4-yl)oxy)phenyl)propan-1-one]	< 3 nM	< 3 nM
Cc1c[nH]c2nccc(Oc3ccc(C[C@H](N)C(=O)NCC4CCCCC4)cc3)c12 [Example 139, (S)-2-amino-N-(cyclohexylmethyl)-3-(4-((3-methyl-1H-pyrrolo[2,3-b]pyridin-4-yl)oxy)phenyl)propanamide]	< 3 nM	< 3 nM
Cc1c[nH]c2nccc(Oc3ccc(C[C@H](N)C(=O)N4CCN(C)C(C)(C)C4)cc3F)c12 [Example 18, (S)-2-amino-3-(3-fluoro-4-((3-methyl-1H-pyrrolo[2,3-b]pyridin-4-yl)oxy)phenyl)-1-(3,3,4-trimethylpiperazin-1-yl)propan-1-one]	< 3 nM	< 3 nM
Cc1c[nH]c2nccc(Oc3ccc(C[C@H](N)C(=O)N4CCN(Cc5cnc6ccccc6n5)CC4)cc3F)c12 [Example 159, (S)-2-amino-3-(3-fluoro-4-((3-methyl-1H-pyrrolo[2,3-b]pyridin-4-yl)oxy)phenyl)-1-(4-(quinoxalin-2-ylmethyl)piperazin-1-yl)propan-1-one]	< 3 nM	< 3 nM
N[C@@H](Cc1ccc(Oc2ccnc3[nH]ccc23)cc1)C(=O)Nc1nccs1 [Example 105, (S)-3-(4-((1H-pyrrolo[2,3-b]pyridin-4-yl)oxy)phenyl)-2-amino-N-(thiazol-2-yl)propanamide]	3 to 30 nM	3 to 30 nM
Cc1c[nH]c2ncnc(Oc3ccc(C[C@H](N)C(=O)NCCc4ccncc4)cc3F)c12 [Example 128, (S)-2-amino-3-(3-fluoro-4-((5-methyl-7H-pyrrolo[2,3-d]pyrimidin-4-yl)oxy)phenyl)-N-(2-(pyridin-4-yl)ethyl)propanamide]	< 3 nM	< 3 nM
Cc1c[nH]c2nccc(Oc3ccc(CC(N)C(=O)N4CCN(Cc5ccccc5)CC4)cc3F)c12 (centres unmarked) [Example 132, 2-amino-1-(4-benzylpiperazin-1-yl)-3-(3-fluoro-4-((3-methyl-1H-pyrrolo[2,3-b]pyridin-4-yl)oxy)phenyl)propan-1-one]	< 3 nM	< 3 nM
Cc1c[nH]c2nccc(Oc3ccc(C[C@H](N)C(=O)NC4(CCO)CCCCC4)cc3F)c12 [Example 36, (S)-2-amino-3-(3-fluoro-4-((3-methyl-1H-pyrrolo[2,3-b]pyridin-4-yl)oxy)phenyl)-N-(1-(2-hydroxyethyl)cyclohexyl)propanamide]	< 3 nM	< 3 nM
Cc1c[nH]c2nccc(Oc3ccc(CC(N)C(=O)NCC4CCN(Cc5ccccc5)CC4)cc3F)c12 (centres unmarked) [Example 82, 2-amino-N-((1-benzylpiperidin-4-yl)methyl)-3-(3-fluoro-4-((3-methyl-1H-pyrrolo[2,3-b]pyridin-4-yl)oxy)phenyl)propanamide]	< 3 nM	< 3 nM
N[C@@H](Cc1ccc(Oc2ccnc3[nH]ccc23)c(F)c1)C(=O)NC1CCCCC1 [Example 146, (S)-3-(4-((1H-pyrrolo[2,3-b]pyridin-4-yl)oxy)-3-fluorophenyl)-2-amino-N-cyclohexylpropanamide]	< 3 nM	< 3 nM
Cc1c[nH]c2nccc(Oc3ccc(CC(N)C(=O)NC4Cc5ccccc5C4)cc3F)c12 (centres unmarked) [Example 63, 2-amino-N-(2,3-dihydro-1H-inden-2-yl)-3-(3-fluoro-4-((3-methyl-1H-pyrrolo[2,3-b]pyridin-4-yl)oxy)phenyl)propanamide]	< 3 nM	< 3 nM
Cc1c[nH]c2ncnc(Oc3ccc(C[C@H](N)C(=O)N4CCC(O)(Cc5ccccc5)CC4)cc3F)c12 [Example 123, (S)-2-amino-1-(4-benzyl-4-hydroxypiperidin-1-yl)-3-(3-fluoro-4-((5-methyl-7H-pyrrolo[2,3-d]pyrimidin-4-yl)oxy)phenyl)propan-1-one]	< 3 nM	< 3 nM
NC(Cc1ccc(Oc2ccnc3[nH]ccc23)cc1)C(=O)Nc1ccc(C(F)(F)F)cc1 (centres unmarked) [Example 91, 3-(4-((1H-pyrrolo[2,3-b]pyridin-4-yl)oxy)phenyl)-2-amino-N-(4-(trifluoromethyl)phenyl)propanamide]	3 to 30 nM	< 3 nM

Further lines, results first:

Ki [1]	Ki [2]	Structure (SMILES)
3 to 30 nM	3 to 30 nM	COCc1c[nH]c2nccc(Oc3ccc(C[C@H](N)C(=O)N4CCN(C)CC4)cc3F)c12 [Example 215, (S)-2-amino-3-(3-fluoro-4-((3-(methoxymethyl)-1H-pyrrolo[2,3-b]pyridin-4-yl)oxy)phenyl)-1-(4-methylpiperazin-1-yl)propan-1-one]
> 30 nM	> 30 nM	CN(C)CCNC(=O)C(Cc1ccc(Oc2ccnc3[nH]ccc23)cc1)NC(=O)C1CCCCC1 (centres unmarked) [Example 181, N-(3-(4-((1H-pyrrolo[2,3-b]pyridin-4-yl)oxy)phenyl)-1-((2-(dimethylamino)ethyl)amino)-1-oxopropan-2-yl)cyclohexanecarboxamide]
< 3 nM	< 3 nM	Cc1c[nH]c2nccc(Oc3ccc(C[C@H](N)C(=O)N4CCN(Cc5cncnc5)CC4)cc3F)c12 [Example 162, (S)-2-amino-3-(3-fluoro-4-((3-methyl-1H-pyrrolo[2,3-b]pyridin-4-yl)oxy)phenyl)-1-(4-(pyrimidin-5-ylmethyl)piperazin-1-yl)propan-1-one]
< 3 nM	< 3 nM	N#Cc1c[nH]c2nccc(Oc3ccc(C[C@H](N)C(=O)NC4CCOCC4)cc3)c12 [Example 218, (S)-2-amino-3-(4-((3-cyano-1H-pyrrolo[2,3-b]pyridin-4-yl)oxy)phenyl)-N-(tetrahydro-2H-pyran-4-yl)propanamide]
> 30 nM	> 30 nM	CN(C)C(Cc1ccc(Oc2ccnc3[nH]ccc23)cc1)C(=O)NC1CCOCC1 (centres unmarked) [Example 182, 3-(4-((1H-pyrrolo[2,3-b]pyridin-4-yl)oxy)phenyl)-2-(dimethylamino)-N-(tetrahydro-2H-pyran-4-yl)propanamide]
< 3 nM	< 3 nM	N[C@@H](Cc1ccc(Oc2ccnc3[nH]cc(-c4ccncc4)c23)cc1)C(=O)N1CCN(Cc2ccccc2)CC1 [Example 192, (S)-2-amino-1-(4-benzylpiperazin-1-yl)-3-(4-((3-(pyridin-4-yl)-1H-pyrrolo[2,3-b]pyridin-4-yl)oxy)phenyl)propan-1-one]
3 to 30 nM	3 to 30 nM	CN1CCC(NC(=O)[C@@H](N)Cc2ccc(Oc3ccnc4[nH]cc(CO)c34)c(F)c2)CC1 [Example 210, (S)-2-amino-3-(3-fluoro-4-((3-(hydroxymethyl)-1H-pyrrolo[2,3-b]pyridin-4-yl)oxy)phenyl)-N-(1-methylpiperidin-4-yl)propanamide]
